Test results as given in patent US20150321164A1, “METHOD FOR SYNTHESIZING AND SCREENING LEAD COMPOUND AND REAGENT TESTING KIT” (HITGEN LTD., priority 2012, published 2015).

Target: T1, trypsin (Bos taurus, UniProt P00760)
T1 sequence (P00760 24-246): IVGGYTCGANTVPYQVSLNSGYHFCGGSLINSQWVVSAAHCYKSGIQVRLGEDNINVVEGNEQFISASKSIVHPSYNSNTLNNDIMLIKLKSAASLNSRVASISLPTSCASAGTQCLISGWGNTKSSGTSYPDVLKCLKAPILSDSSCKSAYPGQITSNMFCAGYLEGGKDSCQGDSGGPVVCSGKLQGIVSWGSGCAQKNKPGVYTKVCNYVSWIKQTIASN
Experiment: trypsin enzyme inhibition activity
Format: biochemical
Settings: enzyme inhibition activity of the resynthesized screened compound, FIGS. 4-5
Protocol: According to the structural formula, the compound is tested at the end of synthesis.

IC50: 8.1 ± 2.1 nM
Structure (SMILES): C[C@H](NC(=O)[C@H](CNC(=O)Cc1ccc2ccccc2c1)NS(=O)(=O)c1ccccc1)C(=O)NCc1ccc(C(=N)N)cc1
